Like-named read-outs stand apart in the source and are kept apart here. Peptide text beside a SMILES is read from it.
Tests used:
Type in all cases: biochemical
HDAC3 = target: T1, HDAC3 (Homo sapiens, UniProt O15379); test: HDAC3 inhibition, full IC50 measurement (Reaction Biology; fluorogenic p53 peptide RHKK(Ac)AMC)
T1 construct: purchased Reaction Biology Corporation (assay run by the CRO)
Outline: (§1)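 Inhibitory peptides were acoustically dispensed with enzyme, then substrate added; 1 h at 30 °C. Developer stopped reaction; plateau endpoint fluorescence (360/460 nm) gave IC50.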

HDAC2 = target: T2, HDAC2 (Homo sapiens, UniProt Q92769); test: Initial HDAC2 IC50 estimate (BPS Biosciences HDAC fluorogenic assay kit)
T2 construct: purchased Reaction Biology Corporation (assay run by the CRO)
Outline: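 Inhibition measured by kit-based fluorogenic HDAC activity assays, with each point in duplicate or triplicate. Values come from a full 1 µM–100 pM series (1:10 steps) or are range estimates from just 20 nM and 200 nM.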

HDAC6 = target: T3, HDAC6 (Homo sapiens, UniProt Q9UBN7); test: HDAC6 inhibition, full IC50 measurement (Reaction Biology; fluorogenic p53 peptide RHKK(Ac)AMC)
T3 construct: purchased Reaction Biology Corporation (assay run by the CRO)
T3 sequence (Q9UBN7 1-1215): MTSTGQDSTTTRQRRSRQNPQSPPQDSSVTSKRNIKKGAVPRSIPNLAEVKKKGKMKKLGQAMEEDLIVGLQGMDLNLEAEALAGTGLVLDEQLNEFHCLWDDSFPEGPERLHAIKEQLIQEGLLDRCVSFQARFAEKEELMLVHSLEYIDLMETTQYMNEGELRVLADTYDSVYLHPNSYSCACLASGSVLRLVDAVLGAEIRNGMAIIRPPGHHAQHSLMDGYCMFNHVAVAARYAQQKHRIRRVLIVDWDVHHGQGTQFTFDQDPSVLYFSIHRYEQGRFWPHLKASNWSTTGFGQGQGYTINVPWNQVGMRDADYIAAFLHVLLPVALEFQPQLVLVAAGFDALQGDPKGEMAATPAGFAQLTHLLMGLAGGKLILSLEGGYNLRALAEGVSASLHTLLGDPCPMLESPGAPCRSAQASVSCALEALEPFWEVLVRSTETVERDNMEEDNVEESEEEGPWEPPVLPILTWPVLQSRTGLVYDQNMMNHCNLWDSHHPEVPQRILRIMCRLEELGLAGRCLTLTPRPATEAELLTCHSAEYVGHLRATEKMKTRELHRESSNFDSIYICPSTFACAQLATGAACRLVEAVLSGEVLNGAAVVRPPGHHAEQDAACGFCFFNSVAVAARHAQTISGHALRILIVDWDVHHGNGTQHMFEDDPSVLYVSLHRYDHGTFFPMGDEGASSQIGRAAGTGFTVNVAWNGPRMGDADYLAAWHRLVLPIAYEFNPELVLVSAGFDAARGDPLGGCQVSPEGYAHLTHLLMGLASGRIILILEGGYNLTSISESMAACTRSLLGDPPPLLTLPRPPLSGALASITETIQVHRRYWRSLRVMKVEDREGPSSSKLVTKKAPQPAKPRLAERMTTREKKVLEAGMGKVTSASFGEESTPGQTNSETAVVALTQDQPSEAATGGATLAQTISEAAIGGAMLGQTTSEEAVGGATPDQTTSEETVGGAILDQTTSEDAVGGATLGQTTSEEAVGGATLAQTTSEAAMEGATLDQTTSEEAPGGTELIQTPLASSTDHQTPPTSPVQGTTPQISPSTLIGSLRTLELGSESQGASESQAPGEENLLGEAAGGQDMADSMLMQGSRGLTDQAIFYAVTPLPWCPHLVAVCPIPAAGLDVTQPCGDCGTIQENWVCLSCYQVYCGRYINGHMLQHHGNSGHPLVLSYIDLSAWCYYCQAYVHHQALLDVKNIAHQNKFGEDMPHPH
Outline: as §1

[1] = Supp. Table 4, rough estimates, for promising hits full measurements, read-out: HDAC2 activity (initial values for HDAC2 IC50)
[2] = Supplementary Dataset 2, read-out: HDAC2 activity (initial activity)

T2 sequence (Q92769 whole entry): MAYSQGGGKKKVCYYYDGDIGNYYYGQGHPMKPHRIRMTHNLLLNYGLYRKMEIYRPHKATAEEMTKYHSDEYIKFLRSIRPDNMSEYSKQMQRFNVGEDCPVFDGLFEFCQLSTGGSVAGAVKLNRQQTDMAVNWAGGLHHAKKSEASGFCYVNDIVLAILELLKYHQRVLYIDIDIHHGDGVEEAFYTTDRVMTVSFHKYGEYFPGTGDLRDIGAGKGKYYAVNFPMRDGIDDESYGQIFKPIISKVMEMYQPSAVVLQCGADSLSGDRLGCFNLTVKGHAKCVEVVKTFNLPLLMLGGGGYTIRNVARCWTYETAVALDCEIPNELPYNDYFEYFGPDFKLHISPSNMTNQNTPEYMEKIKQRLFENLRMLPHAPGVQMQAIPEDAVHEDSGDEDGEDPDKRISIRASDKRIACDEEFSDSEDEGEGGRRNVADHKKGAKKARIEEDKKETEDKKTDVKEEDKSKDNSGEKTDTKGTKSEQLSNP
T1 sequence (O15379 whole entry): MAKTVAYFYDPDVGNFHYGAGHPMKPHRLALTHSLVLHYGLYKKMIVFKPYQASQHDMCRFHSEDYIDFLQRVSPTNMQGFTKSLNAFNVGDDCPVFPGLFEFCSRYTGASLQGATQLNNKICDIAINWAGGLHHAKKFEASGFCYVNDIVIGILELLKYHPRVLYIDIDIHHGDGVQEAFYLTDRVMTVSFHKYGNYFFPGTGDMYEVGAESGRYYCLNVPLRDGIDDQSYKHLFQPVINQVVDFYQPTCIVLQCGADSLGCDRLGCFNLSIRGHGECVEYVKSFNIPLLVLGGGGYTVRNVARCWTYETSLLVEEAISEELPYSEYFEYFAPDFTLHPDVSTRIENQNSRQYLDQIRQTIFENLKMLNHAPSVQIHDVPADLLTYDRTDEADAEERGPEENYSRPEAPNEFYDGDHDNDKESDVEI
T1 sequence (Q9Y618 395-489 partner limits assumed): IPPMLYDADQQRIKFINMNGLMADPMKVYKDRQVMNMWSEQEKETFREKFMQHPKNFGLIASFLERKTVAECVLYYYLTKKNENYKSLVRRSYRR

SMILES: NCCCC[C@H]1NC(=O)[C@H](CCC(N)=O)NC(=O)[C@H](CCC(=O)O)NC(=O)[C@@H]2CCCN2C(=O)[C@H](CC(N)=O)NC(=O)[C@H](CCCCCS)NC(=O)CNC(=O)[C@H](Cc2c[nH]c3ccccc23)NC1=O [des1.1.1, SHA-Asn-Pro-Glu-Gln-dLys-Trp-Gly] (HELM PEPTIDE1{E.Q.[dK].W.G.[O=C([C@H](CCCCCS)N[*:1])[*:2]].N.P}$PEPTIDE1,PEPTIDE1,1:R1-8:R2$$$V2.0)
- HDAC3 activity raw data (signal) (HDAC3; Conc. 1.00E-05 M, t1): 45806
- HDAC3 activity raw data (signal) (HDAC3; Conc. 1.00E-05 M, t2): 14609
- HDAC3 activity raw data (signal) (HDAC3; Conc. 1.11E-06 M, t1): 200334
- HDAC3 activity raw data (signal) (HDAC3; Conc. 1.11E-06 M, t2): 152988
- HDAC3 activity raw data (signal) (HDAC3; Conc. 1.23E-07 M, t1): 623414
- HDAC3 activity raw data (signal) (HDAC3; Conc. 1.23E-07 M, t2): 515219
- HDAC3 activity raw data (signal) (HDAC3; Conc. 1.37E-08 M, t1): 834270
- HDAC3 activity raw data (signal) (HDAC3; Conc. 1.37E-08 M, t2): 1063632
- HDAC3 activity raw data (signal) (HDAC3; Conc. 1.52E-09 M, t1): 943875
- HDAC3 activity raw data (signal) (HDAC3; Conc. 1.52E-09 M, t2): 1416606
- HDAC3 activity raw data (signal) (HDAC3; Conc. 3.33E-06 M, t1): 128090
- HDAC3 activity raw data (signal) (HDAC3; Conc. 3.33E-06 M, t2): 52786
- HDAC3 activity raw data (signal) (HDAC3; Conc. 3.70E-07 M, t1): 393148
- HDAC3 activity raw data (signal) (HDAC3; Conc. 3.70E-07 M, t2): 276336
- HDAC3 activity raw data (signal) (HDAC3; Conc. 4.12E-08 M, t1): 758574
- HDAC3 activity raw data (signal) (HDAC3; Conc. 4.12E-08 M, t2): 884895
- HDAC3 activity raw data (signal) (HDAC3; Conc. 4.57E-09 M, t1): 936051
- HDAC3 activity raw data (signal) (HDAC3; Conc. 4.57E-09 M, t2): 1217433
- HDAC3 activity raw data (signal) (HDAC3; Conc. 5.08E-10 M, t1): 935427
- HDAC3 activity raw data (signal) (HDAC3; Conc. 5.08E-10 M, t2): 1315263
- IC50 (HDAC2; [1]): 192 nM
- IC50 (HDAC2; [2]): 271 nM
- HDAC6 activity raw data (signal) (HDAC6; Conc. 1.00E-05 M, t1): 2105
- HDAC6 activity raw data (signal) (HDAC6; Conc. 1.11E-06 M, t1): 66521
- HDAC6 activity raw data (signal) (HDAC6; Conc. 1.11E-06 M, t2): 22362
- HDAC6 activity raw data (signal) (HDAC6; Conc. 1.23E-07 M, t1): 195275
- HDAC6 activity raw data (signal) (HDAC6; Conc. 1.23E-07 M, t2): 111620
- HDAC6 activity raw data (signal) (HDAC6; Conc. 1.37E-08 M, t1): 384422
- HDAC6 activity raw data (signal) (HDAC6; Conc. 1.37E-08 M, t2): 355429
- HDAC6 activity raw data (signal) (HDAC6; Conc. 1.52E-09 M, t1): 513045
- HDAC6 activity raw data (signal) (HDAC6; Conc. 1.52E-09 M, t2): 553965
- HDAC6 activity raw data (signal) (HDAC6; Conc. 3.33E-06 M, t1): 30608
- HDAC6 activity raw data (signal) (HDAC6; Conc. 3.70E-07 M, t1): 121302
- HDAC6 activity raw data (signal) (HDAC6; Conc. 3.70E-07 M, t2): 45275
- HDAC6 activity raw data (signal) (HDAC6; Conc. 4.12E-08 M, t1): 327835
- HDAC6 activity raw data (signal) (HDAC6; Conc. 4.12E-08 M, t2): 217932
- HDAC6 activity raw data (signal) (HDAC6; Conc. 4.57E-09 M, t1): 470518
- HDAC6 activity raw data (signal) (HDAC6; Conc. 4.57E-09 M, t2): 472349
- HDAC6 activity raw data (signal) (HDAC6; Conc. 5.08E-10 M, t1): 541421
- HDAC6 activity raw data (signal) (HDAC6; Conc. 5.08E-10 M, t2): 570888

SMILES: N=C(N)NCCC[C@@H]1NC(=O)[C@@H](CCCNC(=N)N)NC(=O)[C@H]2CCCN2C(=O)[C@@H](Cc2c[nH]cn2)NC(=O)[C@H](Cc2ccc(O)cc2)NC(=O)[C@H](CCCCCS)NC(=O)[C@H](CCc2ccccc2)NC(=O)[C@@H](CO)NC(=O)[C@H](CC(=O)O)NC1=O [des3.3.1, SHA-Tyr-dHis-dPro-dArg-Arg-Asp-dSer-C27] (HELM PEPTIDE1{[O=C([C@H](CCCCCS)N[*:1])[*:2]].Y.[dH].[dP].[dR].R.D.[dS].[O=C([C@H](CCc1ccccc1)N[*:1])[*:2]]}$PEPTIDE1,PEPTIDE1,1:R1-9:R2$$$V2.0)
- HDAC3 activity raw data (signal) (HDAC3; Conc. 1.00E-05 M, t1): -3010
- HDAC3 activity raw data (signal) (HDAC3; Conc. 1.00E-05 M, t2): -2975
- HDAC3 activity raw data (signal) (HDAC3; Conc. 1.11E-06 M, t1): -3312
- HDAC3 activity raw data (signal) (HDAC3; Conc. 1.11E-06 M, t2): 10427
- HDAC3 activity raw data (signal) (HDAC3; Conc. 1.23E-07 M, t1): 21751
- HDAC3 activity raw data (signal) (HDAC3; Conc. 1.23E-07 M, t2): 40450
- HDAC3 activity raw data (signal) (HDAC3; Conc. 1.37E-08 M, t1): 79797
- HDAC3 activity raw data (signal) (HDAC3; Conc. 1.37E-08 M, t2): 111435
- HDAC3 activity raw data (signal) (HDAC3; Conc. 1.52E-09 M, t1): 143913
- HDAC3 activity raw data (signal) (HDAC3; Conc. 1.52E-09 M, t2): 186935
- HDAC3 activity raw data (signal) (HDAC3; Conc. 3.33E-06 M, t1): -4595
- HDAC3 activity raw data (signal) (HDAC3; Conc. 3.33E-06 M, t2): 4931
- HDAC3 activity raw data (signal) (HDAC3; Conc. 3.70E-07 M, t1): 9528
- HDAC3 activity raw data (signal) (HDAC3; Conc. 3.70E-07 M, t2): 17560
- HDAC3 activity raw data (signal) (HDAC3; Conc. 4.12E-08 M, t1): 66179
- HDAC3 activity raw data (signal) (HDAC3; Conc. 4.12E-08 M, t2): 74103
- HDAC3 activity raw data (signal) (HDAC3; Conc. 4.57E-09 M, t1): 114353
- HDAC3 activity raw data (signal) (HDAC3; Conc. 4.57E-09 M, t2): 144441
- HDAC3 activity raw data (signal) (HDAC3; Conc. 5.08E-10 M, t1): 223427
- HDAC3 activity raw data (signal) (HDAC3; Conc. 5.08E-10 M, t2): 239829
- IC50 (HDAC2; [1]): 25 nM
- IC50 (HDAC2; [2]): 20 nM
- HDAC6 activity raw data (signal) (HDAC6; Conc. 1.00E-05 M, t1): 557
- HDAC6 activity raw data (signal) (HDAC6; Conc. 1.00E-05 M, t2): -139
- HDAC6 activity raw data (signal) (HDAC6; Conc. 1.11E-06 M, t1): 10535
- HDAC6 activity raw data (signal) (HDAC6; Conc. 1.11E-06 M, t2): 12694
- HDAC6 activity raw data (signal) (HDAC6; Conc. 1.23E-07 M, t1): 31520
- HDAC6 activity raw data (signal) (HDAC6; Conc. 1.23E-07 M, t2): 38979
- HDAC6 activity raw data (signal) (HDAC6; Conc. 1.37E-08 M, t1): 82998
- HDAC6 activity raw data (signal) (HDAC6; Conc. 1.37E-08 M, t2): 93685
- HDAC6 activity raw data (signal) (HDAC6; Conc. 1.52E-09 M, t1): 115704
- HDAC6 activity raw data (signal) (HDAC6; Conc. 1.52E-09 M, t2): 134545
- HDAC6 activity raw data (signal) (HDAC6; Conc. 3.33E-06 M, t1): 4544
- HDAC6 activity raw data (signal) (HDAC6; Conc. 3.33E-06 M, t2): 5827
- HDAC6 activity raw data (signal) (HDAC6; Conc. 3.70E-07 M, t1): 20428
- HDAC6 activity raw data (signal) (HDAC6; Conc. 3.70E-07 M, t2): 19976
- HDAC6 activity raw data (signal) (HDAC6; Conc. 4.12E-08 M, t1): 50772
- HDAC6 activity raw data (signal) (HDAC6; Conc. 4.12E-08 M, t2): 68185
- HDAC6 activity raw data (signal) (HDAC6; Conc. 4.57E-09 M, t1): 115536
- HDAC6 activity raw data (signal) (HDAC6; Conc. 4.57E-09 M, t2): 120171
- HDAC6 activity raw data (signal) (HDAC6; Conc. 5.08E-10 M, t1): 151999
- HDAC6 activity raw data (signal) (HDAC6; Conc. 5.08E-10 M, t2): 154121
